The values that follow come from patent US8895499B2, “β-hairpin peptidomimetics” (Polyphor AG, priority 2010, dated 2014).

≈ marks a conversion by molar mass, not a printed value. Peptide text beside a SMILES is read from it. Where only a bound is given, the exact number is not on record here.

The test system of data set [1] is human red blood cells (hRBC). The class given is cell-based. To be noted: red cells of human, 1 h. The method, then: The peptides were tested for their hemolytic activity against human red blood cells (hRBC). Fresh hRBC were washed three times with phosphate buffered saline (PBS) and centrifuged for 10 min at 2000×g. Compounds (100 μg/mL) were incubated with 20% hRBC (v/v) for 1 h at 37° C. and shaking at 300 rpm. The final erythrocyte concentration was approximately 0.9×10^9 cells/mL. A value of 0% and 100% cell lyses, respectively, was determined by incubation of hRBC in the presence of PBS containing 0.001% acetic acid and 2.5% Triton X-100 in H2O, respectively. The samples were centrifuged, the supernatants were 8-fold diluted in PBS buffer and the optical densities (OD) were measured at 540 nm. The 100% lyses value (OD540H2O) gave an OD50 of approximately 0.5-1.0.
Percent hemolysis was calculated as follows: (OD540peptide/OD540H2O)×100%.

A further data set in a line: in vitro. The class given is cell-based. The method, then: The cytotoxicity of the peptides to HELA cells (Acc57) and COS-7 cells (CRL-1651) was determined using the MTT reduction assay (T. Mossman, J. Immunol. Meth. 1983, 65, 55-63; M. V. Berridge, A. S. Tan, Arch. Biochem. Biophys. 1993, 303, 474-482). Briefly, the method was as follows: 4000 HELA cells/well and 3400 COS-7 cells/well were seeded and grown in 96-well microtiter plates for 24 h at 37° C. at 5% CO2. Thereafter, time zero (Tz) was determined by MTT reduction (see below). The supernatant of the remaining wells was discarded, and fresh medium and compounds in serial dilutions (12.5, 25 and 50 μg/mL, triplicates) were pipetted into the wells. After incubation of the cells for 48 h at 37° C. at 5% CO2 the supernatant was discarded again and 100 μL MTT reagent (0.5 mg/mL in RPMI1640 and DMEM, respectively)/well was added. Following incubation at 37° C. for 2-4 h the media were aspirated and the cells were spiked (100 μL isopropanol/well). The absorbance of the solubilized formazan was measured at 595 nm (OD595peptide). For each concentration averages were calculated from triplicates. The percentage of growth was calculated as follows: (OD595peptide-OD595Tz-OD595Empty well)/(OD595Tz-OD595Empty well)×100%. The GI50 (Growth Inhibition) concentrations were calculated for each peptide by using a trend line function for the concentrations (50, 25, 12.5 and 0 μg/mL), the corresponding percentages and the value 50, (=TREND (C50:C0%50:%0,50).

The next data set concerns Shigella boydii DSM 7532. To be noted: Mueller-Hinton II broth + 0.02% BSA, 18-20 hours at 37° C. The method, then: […] colony forming units (CFU)/mL. Aliquots (50 μl) of inoculate were added to 50 μl of MH broth+0.02% BSA containing the peptide in serial two-fold dilutions. The following microorganisms were used to determine antibiotic selectivity of the peptides: Bacillus subtilis DSM 10 and Shigella boydii DSM 7532.

In general, GI50 refers to the concentration that inhibits growth by half. Turning to `CC[C@H](C)[C@@H]1NC(=O)[C@H](CCCN)NC(=O)[C@H](Cc2c[nH]c3ccccc23)NC(=O)[C@@H]2CCCN2C(=O)[C@H]2CCCN2C(=O)[C@H](C)NC(=O)[C@H](CCC(N)=O)NC(=O)[C@H](CC(C)C)NC(=O)[C@H](CCCNC(=N)N)NC(=O)[C@H](CCC(N)=O)NC(=O)[C@H](CC(N)=O)NC(=O)[C@@H](CCCNC(=N)N)NC(=O)[C@H]([C@@H](C)CC)NC(=O)[C@H](CCCNC(=N)N)NC1=O` [Example 6] (HELM PEPTIDE1{W.[Orn].I.R.I.[dR].N.Q.R.L.Q.A.[dP].P}$PEPTIDE1,PEPTIDE1,1:R1-14:R2$$$V2.0), the “Hemolysis at 100 μg/mL” value in data set [1] is 0.0%. The GI50 at 48 h in the data set “in vitro” (African green monkey) and in the data set “in vitro” (human) was greater than 50 µg/mL each time. For the same molecule, the “Shigella boydii DSM 7532 MIC” value with Shigella boydii DSM 7532 is greater than 16 µg/mL.

Consider `CC[C@H](C)[C@@H]1NC(=O)[C@H](CCCNC(=N)N)NC(=O)[C@H](Cc2c[nH]c3ccccc23)NC(=O)[C@@H]2CCCN2C(=O)[C@H]2CCCN2C(=O)[C@H](C)NC(=O)[C@H](CCC(N)=O)NC(=O)[C@H](CC(C)C)NC(=O)[C@H](CCCNC(=N)N)NC(=O)[C@H](CCC(N)=O)NC(=O)[C@H](CC(C)C)NC(=O)[C@@H](CCCNC(=N)N)NC(=O)[C@H]([C@@H](C)CC)NC(=O)[C@H](CCCNC(=N)N)NC1=O` [Example 13] (HELM PEPTIDE1{W.R.I.R.I.[dR].L.Q.R.L.Q.A.[dP].P}$PEPTIDE1,PEPTIDE1,1:R1-14:R2$$$V2.0), for which the “Hemolysis at 100 μg/mL” value in data set [1] was 0.0%. In addition, the GI50 at 48 h in “in vitro” (African green monkey) and in “in vitro” (human) was greater than 50 µg/mL each time. The “Shigella boydii DSM 7532 MIC” value with Shigella boydii DSM 7532 is 16 µg/mL.

For `CC[C@H](C)[C@@H]1NC(=O)[C@H](CCCNC(=N)N)NC(=O)[C@H](Cc2c[nH]c3ccccc23)NC(=O)[C@@H]2CCCN2C(=O)[C@H]2CCCN2C(=O)[C@H](C)NC(=O)[C@H](CCCNC(=N)N)NC(=O)[C@H](CC(N)=O)NC(=O)[C@H](CCCNC(=N)N)NC(=O)[C@H](CCCCN)NC(=O)[C@H](CC(N)=O)NC(=O)[C@@H](CCCNC(=N)N)NC(=O)[C@H]([C@@H](C)CC)NC(=O)[C@H](CCCNC(=N)N)NC1=O` [Example 3] (HELM PEPTIDE1{W.R.I.R.I.[dR].N.K.R.N.R.A.[dP].P}$PEPTIDE1,PEPTIDE1,1:R1-14:R2$$$V2.0), the “Hemolysis at 100 μg/mL” value in data set [1] is on record as 0.1%. Also, the GI50 at 48 h in “in vitro” (African green monkey) and in the data set “in vitro” (human) was greater than 50 µg/mL each time. Further, the “Shigella boydii DSM 7532 MIC” value in the data set on Shigella boydii DSM 7532 was determined as 16 µg/mL.

For the molecule `CC[C@H](C)[C@@H]1NC(=O)[C@H](CCCNC(=N)N)NC(=O)[C@H](Cc2c[nH]c3ccccc23)NC(=O)[C@@H]2CCCN2C(=O)[C@H]2CCCN2C(=O)[C@H](C)NC(=O)[C@H](CCC(N)=O)NC(=O)[C@H](CC(C)C)NC(=O)[C@H](CCCNC(=N)N)NC(=O)[C@H](CCC(N)=O)NC(=O)[C@H]([C@@H](C)O)NC(=O)[C@@H](CCCNC(=N)N)NC(=O)[C@H]([C@@H](C)CC)NC(=O)[C@H](CCCNC(=N)N)NC1=O` [Example 12] (HELM PEPTIDE1{W.R.I.R.I.[dR].T.Q.R.L.Q.A.[dP].P}$PEPTIDE1,PEPTIDE1,1:R1-14:R2$$$V2.0), in data set [1], the “Hemolysis at 100 μg/mL” value was 0.7%. For the same molecule, the concentration for 50% growth inhibition (GI50) at 48 h in “in vitro” (African green monkey) and in the data set “in vitro” (human) was greater than 50 µg/mL throughout. Moreover, the “Shigella boydii DSM 7532 MIC” value with Shigella boydii DSM 7532 was greater than 16 µg/mL.

Regarding `CC[C@H](C)[C@@H]1NC(=O)[C@H](CCCNC(=N)N)NC(=O)[C@H](Cc2c[nH]c3ccccc23)NC(=O)[C@@H]2CCCN2C(=O)[C@H]2CCCN2C(=O)[C@H](CCN)NC(=O)[C@H](CCCNC(=N)N)NC(=O)[C@H](CC(N)=O)NC(=O)[C@H](CCN)NC(=O)[C@H](Cc2c[nH]c3ccccc23)NC(=O)[C@H](CC(N)=O)NC(=O)[C@@H](CCN)NC(=O)[C@H]([C@@H](C)CC)NC(=O)[C@H](CCCNC(=N)N)NC1=O` [Example 17] (HELM PEPTIDE1{W.R.I.R.I.[NCC[C@@H](N[*:1])C(=O)[*:2]].N.W.[Dab].N.R.[Dab].[dP].P}$PEPTIDE1,PEPTIDE1,1:R1-14:R2$$$V2.0), the “Hemolysis at 100 μg/mL” value in data set [1] came to 0.2%. The concentration for 50% growth inhibition (GI50) at 48 h in “in vitro” (African green monkey) was 44 µg/mL (≈ 24.6 µM); in the data set “in vitro” (human), 38 µg/mL (≈ 21.2 µM). Further, the “Shigella boydii DSM 7532 MIC” value in the data set with Shigella boydii DSM 7532 turned out to be 4 µg/mL.

`CC[C@H](C)[C@@H]1NC(=O)[C@H](CCCNC(=N)N)NC(=O)[C@H]([C@@H](C)CC)NC(=O)[C@H](CCCNC(=N)N)NC(=O)[C@H](Cc2c[nH]c3ccccc23)NC(=O)[C@@H]2CCCN2C(=O)[C@H]2CCCN2C(=O)[C@H](C)NC(=O)[C@H](CCC(N)=O)NC(=O)[C@H](CC(C)C)NC(=O)[C@H](CCCNC(=N)N)NC(=O)[C@H](CCC(N)=O)NC(=O)[C@H](CC(N)=O)NC(=O)[C@H](CCCN)NC1=O` [Example 9] (HELM PEPTIDE1{W.R.I.R.I.[Orn].N.Q.R.L.Q.A.[dP].P}$PEPTIDE1,PEPTIDE1,1:R1-14:R2$$$V2.0): the “Hemolysis at 100 μg/mL” value in data set [1] is on record as 0.0%. Also, the GI50 at 48 h in the data set “in vitro” (African green monkey) and in “in vitro” (human) was greater than 50 µg/mL throughout. Further, in the data set on Shigella boydii DSM 7532, the “Shigella boydii DSM 7532 MIC” value was greater than 16 µg/mL.

As for `CC[C@H](C)[C@@H]1NC(=O)[C@H](CCCNC(=N)N)NC(=O)[C@H](Cc2c[nH]c3ccccc23)NC(=O)[C@@H]2CCCN2C(=O)[C@H]2CCCN2C(=O)[C@H](C)NC(=O)[C@H](CCC(N)=O)NC(=O)[C@H](CC(C)C)NC(=O)[C@H](CCCNC(=N)N)NC(=O)[C@H](CCC(N)=O)NC(=O)[C@H](CC(N)=O)NC(=O)[C@@H](CCCNC(=N)N)NC(=O)[C@H]([C@@H](C)CC)NC(=O)[C@H](CCCN)NC1=O` [Example 8] (HELM PEPTIDE1{W.R.I.[Orn].I.[dR].N.Q.R.L.Q.A.[dP].P}$PEPTIDE1,PEPTIDE1,1:R1-14:R2$$$V2.0), in data set [1], the “Hemolysis at 100 μg/mL” value is given as 0.0%. Moreover, the GI50 at 48 h in the data set “in vitro” (African green monkey) and in “in vitro” (human) was greater than 50 µg/mL throughout. The “Shigella boydii DSM 7532 MIC” value with Shigella boydii DSM 7532 was 16 µg/mL.

For the molecule `CC[C@H](C)[C@@H]1NC(=O)[C@H](CCCNC(=N)N)NC(=O)[C@H](Cc2c[nH]c3ccccc23)NC(=O)[C@@H]2CCCN2C(=O)[C@H]2CCCN2C(=O)[C@H](C)NC(=O)[C@H](CCC(N)=O)NC(=O)[C@H](CC(C)C)NC(=O)[C@H](CCCNC(=N)N)NC(=O)[C@H](CCC(N)=O)NC(=O)[C@H](Cc2ccc(O)cc2)NC(=O)[C@@H](CCCNC(=N)N)NC(=O)[C@H]([C@@H](C)CC)NC(=O)[C@H](CCCNC(=N)N)NC1=O` [Example 14] (HELM PEPTIDE1{W.R.I.R.I.[dR].Y.Q.R.L.Q.A.[dP].P}$PEPTIDE1,PEPTIDE1,1:R1-14:R2$$$V2.0), the “Hemolysis at 100 μg/mL” value in data set [1] was determined as 0.0%. Besides, the GI50 at 48 h in “in vitro” (African green monkey) and in the data set “in vitro” (human) was greater than 50 µg/mL throughout. Also, the “Shigella boydii DSM 7532 MIC” value in the data set on Shigella boydii DSM 7532 worked out at 16 µg/mL.
